From patent US4720387A (priority 1983, dated 1988)

What was measured:
[1] = relationship between antihypertensive effect and blood-level of pinacidil; parameters: species or system inpatients suffering from hypertension; conditions: in vivo
Text: The term ΔMBP means the difference between the values of Mean Blood Pressure before and after the administration, and FIGS. 1 and 2 show the average of blood-levels or ΔMBP on the five inpatients.

[2] = adverse reaction at various dosages in inpatients; type: in vivo, inpatients suffering from hypertension; conditions: higher dosage affording sufficient therapeutic time
[3] = in vivo
Text: [referred to Exp. 6-II), Table 12].
The frequency of the adverse reaction was compared between the two groups.

[4] = blood-level and excretion of native pinacidil; type: in vivo, inpatients suffering from hypertension
[5] = in vivo; cited from earlier work

SMILES: CC(N/C(=N\C#N)Nc1ccncc1)C(C)(C)C (stereo not drawn) [pinacidil, N"-cyano-N-4-pyridyl-N'-1,2,2-trimethylpropylguanidine]
- blood-level at which the antihypertensive effect was minimum (minimum effective blood-level) [1]: around 20 ng/ml
- blood-level at which the antihypertensive effect was satisfactory [1]: over 30 ng/ml
- adverse reaction at higher dosage [2]: usually induced the adverse reaction (i.e. headache)
- blood-level at which side-effects (headache) occasionally occur [3]: over 100 ng/ml
- maximum safety level (blood-level) [3]: 100 ng/mL
- time the effective blood-level is kept ([4]; highest dosage of unprepared pinacidil to avoid the adverse reaction): about 6 hours
- half-life ([4]; human, blood, administered after a meal, read-out: biological half-life period): 1 to 2 h
- Tmax ([4]; human, blood, administered after a meal, read-out: time to maximum concentration): 1 to 3 h
- dose proportionality of blood-level [5]: increases in proportion to its dose level
